Key:
[1] = molecular target: T1, P-gp (MDR1) (Homo sapiens, UniProt P08183); experiment: Efflux ratio in MDR1 transfected LLC-PK1 cells; type: in vitro ADME; details: pig, Papp(B−A)/Papp(A−B)
T1 construct: expressed in transfected cells; host or cells: LLC-PK1 (porcine kidney) cells transfected with MDR1
Procedure, shortened: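 LLC-PK1 cells transfected with MDR1, test article at 1 μM (1% organic), transport measured A→B and B→A over 2 h at 37° C. Monolayer integrity checked with lucifer yellow, compound quantified by LC-MS/MS. Efflux ratio = Papp(B−A)/Papp(A−B).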

[2] = molecular target: T2, BCRP (hBCRP) (Homo sapiens, UniProt Q9UNQ0); experiment: Efflux ratio in BCRP transfected MDCKII canine P-gp knockout cells; type: in vitro ADME; details: Papp(B−A)/Papp(A−B), read-out: Efflux ratio MDCKII-hBCRP knock-in,canine pg-P KO
T2 construct: expressed in transfected cells; host or cells: MDCKII (canine kidney) cells, canine P-gp knockout, transfected with BCRP
T2 sequence (Q9UNQ0 1-655): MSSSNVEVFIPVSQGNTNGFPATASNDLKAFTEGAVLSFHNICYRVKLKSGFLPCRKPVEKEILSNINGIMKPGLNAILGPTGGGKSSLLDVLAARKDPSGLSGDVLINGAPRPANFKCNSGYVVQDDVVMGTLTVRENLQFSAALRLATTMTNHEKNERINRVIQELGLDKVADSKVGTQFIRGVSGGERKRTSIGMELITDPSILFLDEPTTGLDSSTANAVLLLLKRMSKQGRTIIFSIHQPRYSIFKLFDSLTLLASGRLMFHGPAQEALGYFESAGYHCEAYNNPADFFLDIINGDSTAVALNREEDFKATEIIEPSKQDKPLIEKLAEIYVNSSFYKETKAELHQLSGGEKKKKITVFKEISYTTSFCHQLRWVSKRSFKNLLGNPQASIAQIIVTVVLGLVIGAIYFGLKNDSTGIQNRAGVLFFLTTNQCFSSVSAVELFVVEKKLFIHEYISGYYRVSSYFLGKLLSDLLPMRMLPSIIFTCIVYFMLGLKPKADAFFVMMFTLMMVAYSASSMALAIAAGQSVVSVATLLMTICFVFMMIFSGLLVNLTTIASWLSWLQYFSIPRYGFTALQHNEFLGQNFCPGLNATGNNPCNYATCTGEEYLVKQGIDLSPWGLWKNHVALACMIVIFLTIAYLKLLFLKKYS
Procedure, shortened: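 Test article at 1 μM final (1% organic) in A→B and B→A directions across MDCKII P-gp knockout monolayers expressing BCRP, 2 h at 37° C., triplicate; lucifer yellow checked monolayer integrity. Concentrations by LC-MS/MS against labetalol internal standard; efflux ratio = Papp(B−A)/Papp(A−B).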

[3] = tested on: ERK1/2(Thr202/Tyr204) phosphorylation (MEK-dependent) in A375 cells; experiment: Cellular Phospho-p44/42 MAPK (Erk1/2) (Thr202/Tyr204) Assay; type: cell-based; details: Homo sapiens, A-375, 1-hour incubation, pERK1/2 (Thr202/Tyr204) In-Cell Western normalized to GAPDH
Procedure, shortened: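 A375 cells exposed 1 h to 10-point 1:3 dilutions (top 20–1 μM, 0.5% DMSO), then fixed and stained for pERK1/2 (Thr202/Tyr204) by In-Cell Western. Signal normalized to GAPDH per well; DMSO and 1 μM reference inhibitor define 0 and 100% inhibition.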

[4] = MDR1 LLC-PK1 and BCRP MDCKII Permeability Assay: permeability coefficient (Papp); type: in vitro ADME; details: MDCK, test article 1 μM, 37° C.
Procedure, shortened: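 Bidirectional (A to B, B to A) transport of test article (1 μM, 1% organic) across MDR1-transfected LLC-PK1 or BCRP-transfected MDCKII (canine P-gp knockout) monolayers, 2 h at 37° C., 5% CO2, in triplicate. Lucifer yellow monitored monolayer integrity. Concentrations measured by LC-MS/MS against labetalol internal standard.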

[5] = Moisture sorption analysis of solid forms; type: physicochemical; details: 25° C.
Description: Water sorption and desorption studies were conducted on automated vapor sorption analyzer (TA instruments Q5000 SA). The microbalance was calibrated using a 100 mg standard weight. The relative humidity sensor was calibrated at 5.0, 11.3, 32.8, 52.8, 75.3, and 84.3% RH (25° C.) using saturated salt solutions. Approximately 10-20 mg of crystalline monohydrate 8-((2-fluoro-4-(methylthio)phenyl)amino)-2-(2-hydroxyethoxy)-7-methyl-3,4-dihydro-2,7-naphthyrdine-1,6(2H,7H)-dione, Form 3 was placed in the quartz sample holder and dried at ≤3% relative humidity (RH) at 25° C. […] A maximum equilibration time of 120 minutes was used for all steps. The weight gain at each of the % RH steps is based on the weight after the initial drying step at 0% RH. The weight change of the sample was not used to assess equilibrium and instead all steps were programed to be 120 minutes. After data collection was complete, data analysis was performed using commercially available TA universal analysis software and Microsoft Excel.
FIG. 5 depicts the sorption isotherm of crystalline monohydrate 8-((2-fluoro-4-(methylthio)phenyl)amino)-2-(2-hydroxyethoxy)-7-methyl-3,4-dihydro-2,7-naphthyridine-1,6(2H,7H)-dione, Form 3. […] Crystalline anhydrous 8-((2-fluoro-4-(methylthio)phenyl)amino)-2-(2-hydroxyethoxy)-7-methyl-3,4-dihydro-2,7-naphthyridine-1,6(2H,7H)-dione, Form 2 rehydrates to crystalline monohydrate 8-((2-fluoro-4-(methylthio)phenyl)amino)-2-(2-hydroxyethoxy)-7-methyl-3,4-dihydro-2,7-naphthyridine-1,6(2H,7H)-dione, Form 3 at 25% RH at 25° C. as confirmed by PXRD analysis. Based on this analysis, crystalline anhydrous 8-((2-fluoro-4-(methylthio)phenyl)amino)-2-(2-hydroxyethoxy)-7-methyl-3,4-dihydro-2,7-naphthyridine-1,6(2H,7H)-dione, Form 2 is stable below 10% RH at 25° C., and crystalline monohydrate 8-((2-fluoro-4-(methylthio)phenyl)amino)-2-(2-hydroxyethoxy)-7-methyl-3,4-dihydro-2,7-naphthyridine-1,6(2H,7H)-dione, Form 3 is stable above 30% RH at 25° C.

T1 sequence (P08183 whole entry): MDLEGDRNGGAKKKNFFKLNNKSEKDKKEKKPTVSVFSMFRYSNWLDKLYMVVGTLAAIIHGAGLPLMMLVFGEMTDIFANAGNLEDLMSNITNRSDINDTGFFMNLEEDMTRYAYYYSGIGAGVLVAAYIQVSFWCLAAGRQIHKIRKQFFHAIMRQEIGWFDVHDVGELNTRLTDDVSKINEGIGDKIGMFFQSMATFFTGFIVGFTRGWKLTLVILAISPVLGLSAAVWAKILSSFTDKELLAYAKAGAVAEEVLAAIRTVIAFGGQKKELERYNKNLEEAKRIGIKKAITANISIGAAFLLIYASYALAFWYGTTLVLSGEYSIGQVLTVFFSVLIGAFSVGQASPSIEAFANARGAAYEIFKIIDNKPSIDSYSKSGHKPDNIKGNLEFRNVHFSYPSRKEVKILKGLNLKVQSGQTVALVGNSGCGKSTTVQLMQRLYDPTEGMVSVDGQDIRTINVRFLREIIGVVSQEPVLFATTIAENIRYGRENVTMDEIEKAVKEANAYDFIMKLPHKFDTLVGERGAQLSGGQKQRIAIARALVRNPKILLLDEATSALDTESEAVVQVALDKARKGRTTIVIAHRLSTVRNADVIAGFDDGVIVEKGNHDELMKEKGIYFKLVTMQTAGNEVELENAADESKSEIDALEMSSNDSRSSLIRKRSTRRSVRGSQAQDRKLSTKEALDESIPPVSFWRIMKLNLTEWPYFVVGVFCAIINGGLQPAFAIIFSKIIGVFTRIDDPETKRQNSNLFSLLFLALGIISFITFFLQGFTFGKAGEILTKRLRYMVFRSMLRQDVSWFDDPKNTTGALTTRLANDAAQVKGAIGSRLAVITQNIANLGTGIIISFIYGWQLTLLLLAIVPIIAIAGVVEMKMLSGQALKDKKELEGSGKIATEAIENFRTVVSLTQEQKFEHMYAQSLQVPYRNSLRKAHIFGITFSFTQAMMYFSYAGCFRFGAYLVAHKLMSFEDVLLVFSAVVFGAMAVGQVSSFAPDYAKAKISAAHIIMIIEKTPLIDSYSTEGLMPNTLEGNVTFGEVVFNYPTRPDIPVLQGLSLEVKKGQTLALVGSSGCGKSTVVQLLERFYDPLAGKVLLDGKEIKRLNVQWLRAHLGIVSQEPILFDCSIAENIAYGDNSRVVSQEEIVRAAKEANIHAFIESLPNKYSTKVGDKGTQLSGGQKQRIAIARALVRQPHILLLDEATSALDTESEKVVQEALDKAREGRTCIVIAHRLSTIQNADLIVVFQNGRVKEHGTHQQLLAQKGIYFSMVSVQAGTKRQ

Row | Compound | efflux ratio at 2 h, 1 μM [1] | efflux ratio at 2 h, 1 μM [2] | IC50 [3] | Papp at 2 h, 1 μM [4] | relative humidity at which the solid form is stable [5] | relative humidity at which anhydrous Form 2 rehydrates to monohydrate Form 3 ([5]; confirmed by PXRD) | relative humidity at which monohydrate Form 3 dehydrates to anhydrous Form 2 ([5]; confirmed by PXRD)
1 | Cn1c(Nc2ccc(OC(F)F)cc2F)c2c(cc1=O)CCNC2=O [Example 53, 8-((4-(difluoromethoxy)-2-fluorophenyl)amino)-7-methyl-3,4-dihydro-2,7-naphthyridine-1,6(2H,7H)-dione] | 1.1 | 1.8 | 30 nM | 36.9 ×10⁻⁶ cm/s | – | – | –
2 | CSc1ccc(Nc2c3c(c(C)c(=O)n2C)CCNC3=O)c(F)c1 [Example 55, 8-((2-fluoro-4-(methylthio)phenyl)amino)-5,7-dimethyl-3,4-dihydro-2,7-naphthyrdine-1,6(2H,7H)-dione] | 1.4 | 1.4 | 28 nM | 37.4 ×10⁻⁶ cm/s | – | – | –
3 | CCc1ccc(Nc2c3c(c(C)c(=O)n2C)CCNC3=O)c(F)c1 [Example 56, 8-((4-ethyl-2-fluorophenyl)amino)-5,7-dimethyl-3,4-dihydro-2,7-naphthyridine-1,6(2H,7H)-dione] | 0.8 | 1.1 | 56 nM | 32.1 ×10⁻⁶ cm/s | – | – | –
4 | Cc1c2c(c(Nc3ccc(C4CC4)cc3F)n(C)c1=O)C(=O)NCC2 [Example 57, 8-((4-cyclopropyl-2-fluorophenyl)amino)-5,7-dimethyl-3,4-dihydro-2,7-naphthyridine-1,6(2H,7H)-dione] | 0.9 | 1.2 | 94 nM | 31.8 ×10⁻⁶ cm/s | – | – | –
5 | CSc1ccc(Nc2c3c(cc(=O)n2C)CCN(OCCO)C3=O)c(F)c1 [Form 2, 8-((2-fluoro-4-(methylthio)phenyl)amino)-2-(2-hydroxyethoxy)-7-methyl-3,4-dihydro-2,7-naphthyridine-1,6(2H,7H)-dione] | – | – | – | – | below 10 % RH | 25 % RH | –
6 | CSc1ccc(Nc2c3c(cc(=O)n2C)CCN(OCCO)C3=O)c(F)c1 [Form 3, 8-((2-fluoro-4-(methylthio)phenyl)amino)-2-(2-hydroxyethoxy)-7-methyl-3,4-dihydro-2,7-naphthyridine-1,6(2H,7H)-dione] | – | – | – | – | above 30 % RH | – | 15 % RH

— US11802127B2, “3,4-dihydro-2,7-naphthyridine-1,6(2H,7H)-diones as MEK inhibitors” (Pfizer Inc., priority 2021, dated 2023)
